Reference: patent US20230218710A1, “METHOD OF TREATING CORONAVIRUS INFECTIONS” (priority 2020, published 2023)
Marks after values point to notes of the source that are not given here.

Legend:
Apelin Receptor (APJ) = molecular target: T1, Apelin Receptor (APJ) (Homo sapiens, UniProt P35414); assay: Phosphorylation of MEK1 in cultured cells overexpressing APJ; assay type: cell-based; settings: 5 min, 100 nM Pyr-Apelin-13 = positive control, acetate salts
T1 construct: host or cells: CHO-K1 AGTRL1 Gi cells
T1 sequence (P35414 1-380): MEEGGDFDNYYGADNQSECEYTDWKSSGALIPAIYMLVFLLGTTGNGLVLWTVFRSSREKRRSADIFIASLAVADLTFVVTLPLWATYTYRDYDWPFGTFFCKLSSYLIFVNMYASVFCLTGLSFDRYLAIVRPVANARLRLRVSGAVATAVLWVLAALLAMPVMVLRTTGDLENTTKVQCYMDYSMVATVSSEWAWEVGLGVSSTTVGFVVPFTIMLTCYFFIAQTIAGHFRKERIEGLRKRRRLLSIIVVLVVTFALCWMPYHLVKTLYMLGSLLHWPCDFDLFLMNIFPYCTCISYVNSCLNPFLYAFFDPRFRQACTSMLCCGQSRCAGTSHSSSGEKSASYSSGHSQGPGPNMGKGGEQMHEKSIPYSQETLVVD
Procedure: Peptides were initially prepared as 100× stocks in H2O. […] Following a 5 min incubation, the supernatant was removed and the cells were placed on ice and washed twice with cold HBSS. The HBSS was removed and the cells were immediately lysed in 300 μl/well of 1× lysis buffer (CST 10× Lysis Buffer; Cell Signaling Technology; Danvers, Mass.); lysis buffer was supplemented with 1 mM PMSF (Millipore-Sigma; Saint Louis, Mo.) and Halt Protease/Phosphatase Inhibitor Cocktail (Thermo-Fisher; Waltham, Mass.) prior to use. The samples were then placed on ice for 10 min, the wells were scraped and lysates were centrifuged at 12,500 rpm for 10 min at 4° C., and p-MEK expression in each sample was measured using Phospho-MEK1 (Ser217/221) Sandwich ELISA kit according to manufacturer's instructions (Cell Signaling Technology; Danvers, Mass.). Absorbance was measured using a Cytation 3 plate reader at […] (BioTek; Winooski, Vt.). […] Each data point represents the average of duplicate assays.

[1] = tested on: LPS-induced acute lung injury mouse model; assay: LPS-induced acute lung injury model in mouse (Example 7); assay type: in vivo, mice; settings: 4 h after LPS, 5 mg/kg i.p.
Procedure: The effect of the peptides of the current invention on acute lung injury can be assessed in an LPS-induced acute lung injury mouse model by monitoring outcomes such as lung weight, fluid accumulation, cytokine secretion in blood or bronchoalveolar lavage fluid (BALF). Acute lung injury was induced in male C57BL/6 mice (6 to 8 weeks old) by intratracheal administration of 40 μL lipopolysaccharide (LPS) (Sigma Aldrich, St. Louis, Mo.) in PBS at 5 mg/kg. Control animals received intratracheal PBS alone. Animals (n=8 per treatment group) induced with LPS received intraperitoneal treatment with: PBS (vehicle control) or test peptides at 5 mg/kg in water. Treatments were administered 1 h prior to LPS. At 4 h post LPS administration, tissues were harvested. Lungs were weighed, flushed with Hanks Buffer to provide bronchoalveolar lavage fluid (BALF). Data for test peptides were compared to the vehicle control group. Table 11 compares the lung weights following LPS induction and treatment with PBS (vehicle control) or peptides. Table 12 compares the levels of pro-inflammatory cytokines in BALF following LPS induction and treatment with PBS (vehicle control) or peptides.

[2] = tested on: LPS-induced acute lung injury mouse model; assay: LPS-induced acute lung injury model in mouse (Example 6); assay type: in vivo, mice; settings: histopathology, 24 h after LPS, 5 mg/kg i.p.
Procedure: The effect of the peptides of the current invention on acute lung injury can be assessed in an LPS-induced acute lung injury mouse model by monitoring outcomes such as lung weight, fluid accumulation, cytokine secretion in blood or bronchoalveolar lavage fluid (BALF), neutrophil infiltration into lung tissues, and assessment of acute lung injury score by histopathology. Acute lung injury was induced in male C57BL/6 mice (6 to 8 weeks old) by intratracheal administration of 40 μL lipopolysaccharide (LPS) (Sigma Aldrich, St. Louis, Mo.) in PBS at 5 mg/kg. Control animals received intratracheal PBS alone. […] Treatments were administered 1 h prior to LPS for animals designated for sacrifice at 4 h after LPS, or at both 1 h prior to and 6 h after LPS for animals designated for sacrifice at 24 h after LPS. At 4 or 24 hours post LPS administration, tissues were harvested. Lungs were weighed, flushed with Hanks Buffer to provide bronchoalveolar lavage fluid (BALF). Lungs were fixed in 10% neutral buffered formalin (NBF) for histopathology. Tissue slides were stained with hematoxylin and eosin (H&E) and evaluated and scored with light microscopy of 5 representative microscopic fields (100× magnification) scoring on a 0-5 scale using standard methods (Matute-Bello G et al 2011. An Official American Thoracic Society Workshop Report: Features and Measurements of Experimental Acute Lung Injury in Animals. Am J Respir Cell Mol Biol 44:725-38). The average score for five fields was calculated for each animal. Levels of pro-inflammatory cytokines in BALF were determined using a meso scale discovery (MSD) system. Data for test peptides were compared to the vehicle control group. Lung weights were normalized to body weight.

(PEG12)KRRLLGLVFQSLCG(dA) (KRRLLGLVFQSLCGA; N-terminal PEG12; C-terminal D-alanine; (1)..(1) PEG12; (15)..(15) D-Ala) [SEQ ID NO: 37]
pMEK1 (% of Positive Control) (Apelin Receptor (APJ); 2.0 μM peptide): 8.7%
pMEK1 (% of Positive Control) (Apelin Receptor (APJ); 10 μM peptide): 45.5%
pMEK1 (% of Positive Control) (Apelin Receptor (APJ); 50 μM peptide): 79.4%
Mean (SEM) Lung Weight [1]: 0.259 (0.004)*** g
Pro-inflammatory Cytokine Level IFNγ ([1]; BALF): 0.13 pg/mL
Pro-inflammatory Cytokine Level IL-1β ([1]; BALF): 72.5 pg/mL
Pro-inflammatory Cytokine Level IL-2 ([1]; BALF): 0.60 pg/mL
Pro-inflammatory Cytokine Level IL-4 ([1]; BALF): 0.86 pg/mL
Pro-inflammatory Cytokine Level IL-6 ([1]; BALF): 3080 pg/mL
Pro-inflammatory Cytokine Level IL-9 ([1]; BALF): 4.74 pg/mL
Pro-inflammatory Cytokine Level KC/GRO ([1]; BALF): 2660 pg/mL
Pro-inflammatory Cytokine Level TNFα ([1]; BALF): 3850 pg/mL
Mean (SEM) Alveolar Neutrophil Infiltration Score ([2]; 0-5 scale): 1.50 (0.14)
Mean (SEM) Interstitial Neutrophil Infiltration Score ([2]; 0-5 scale): 1.30 (0.11)
Mean (SEM) Composite Lung Injury Score [2]: 2.83 (0.23)
